Measured values published in patent US8835377B2, “Oral delivery of peptide pharmaceutical compositions” (UGP Therapeutics, Inc., priority 2004, dated 2014).

Experiment: Pharmacokinetics after oral capsules (sCT plus Dmt-DALDA with citric acid and lauroyl carnitine), non-enteric coated or enteric coated, in fasted beagle dogs (plasma; ELISA for sCT, HPLC-MS for Dmt-DALDA)
Type: in vivo
Protocol: A second series of tests was carried out, as noted above, using beagle dogs. […] In the experiments represented in FIGS. 2A and 2B, size 00 […] capsules were each filled with 758 mg of a powdered blend consisting of citric acid (643 mg), lauroyl carnitine (66 mg), talc (33 mg), salmon calcitonin (sCT) (13 mg) and Dmt-DALDA (2.4 mg). Half of the capsules were coated with an enteric coating solution of L30D-55, while the remaining 50% of the capsules were not coated. Four fasted dogs were each given 1 uncoated capsule, and 2 weeks later they were each given an enteric coated capsule. After administration of each capsule, samples of blood were taken at 15 minute intervals from an indwelling catheter for up to 4 hours. The blood samples were centrifuged and the resulting plasma supernatants were stored frozen at −20° C. The plasma samples were subsequently analyzed for sCT by a direct ELISA, and for Dmt-DALDA by HPLC-mass spectrometry performed as set forth in Wan, H. and Desiderio, D., Quantitation of [DMT^1] DALDA in ovine plasma by on-line liquid chromatography/quadrapole time-of-flight mass spectrometry, Rapid Communications in Mass Spectrometry, 2003; 17, 538-546, the contents of which are incorporated herein by reference.
The results summarized in FIGS. 2A and 2B as plasma peptide concentration normalized to a 1 mg dose as a function of time relative to the average Tmax, (i.e., the time at which the maximum amount of peptide was detected) indicate that both peptides, i.e., sCT and Dmt-DALDA, were detected in dogs given uncoated or enteric coated capsules. […] Table DI (below) sets forth the values upon which the curves in FIGS. 2A and 2B are based. The results are summarized in the tables as plasma peptide concentration normalized to a 1 mg dose as a function of time. Table III, moreover, provides the standard deviations for the data obtained regarding each of the test dogs, which standard deviations are also indicated in FIGS. 2A and 2B.
Table IV (below) summarizes the pharmacokinetic parameters in dogs of orally administered sCT and Dmt-DALDA when administered in non-enteric coated versus enteric coated capsules. Peptide was not detected from 1 dog in each group due to (a) Dog 3 vomiting the uncoated capsule and (b) delayed gastric emptying in Dog 2 provided with an enteric coated capsule. Cmax and AUC are as defined with regard to Table H above.

Structure (SMILES): CC(C)C[C@H](NC(=O)[C@H](CCCCN)NC(=O)CNC(=O)[C@H](CC(C)C)NC(=O)[C@@H](NC(=O)[C@@H]1CSSC[C@H](N)C(=O)N[C@@H](CO)C(=O)N[C@@H](CC(N)=O)C(=O)N[C@@H](CC(C)C)C(=O)N[C@@H](CO)C(=O)N[C@@H]([C@@H](C)O)C(=O)N1)C(C)C)C(=O)N[C@@H](CO)C(=O)N[C@@H](CCC(N)=O)C(=O)N[C@@H](CCC(=O)O)C(=O)N[C@@H](CC(C)C)C(=O)N[C@@H](Cc1c[nH]cn1)C(=O)N[C@@H](CCCCN)C(=O)N[C@@H](CC(C)C)C(=O)N[C@@H](CCC(N)=O)C(=O)N[C@H](C(=O)N[C@@H](Cc1ccc(O)cc1)C(=O)N1CCC[C@H]1C(=O)N[C@@H](CCCNC(=N)N)C(=O)N[C@H](C(=O)N[C@@H](CC(N)=O)C(=O)N[C@H](C(=O)NCC(=O)N[C@@H](CO)C(=O)NCC(=O)N[C@H](C(=O)N1CCC[C@H]1C(N)=O)[C@@H](C)O)[C@@H](C)O)[C@@H](C)O)[C@@H](C)O [sCT, salmon calcitonin]
- plasma peptide concentration normalized to a 1 mg dose (enteric coated capsule, Dog 3, 75 min): 0 pg/mL
- plasma peptide concentration normalized to a 1 mg dose (enteric coated capsule, Dog 3, 90 min): 0 pg/mL
- plasma peptide concentration normalized to a 1 mg dose (enteric coated capsule, Dog 3, 105 min): 0 pg/mL
- plasma peptide concentration normalized to a 1 mg dose (enteric coated capsule, Dog 3, 120 min): 0 pg/mL
- plasma peptide concentration normalized to a 1 mg dose (enteric coated capsule, Dog 3, 135 min): 13219 pg/mL
- plasma peptide concentration normalized to a 1 mg dose (enteric coated capsule, Dog 3, 150 min): 10151 pg/mL
- plasma peptide concentration normalized to a 1 mg dose (enteric coated capsule, Dog 3, 165 min): 4410 pg/mL
- plasma peptide concentration normalized to a 1 mg dose (enteric coated capsule, Dog 3, 180 min): 2983 pg/mL
- plasma peptide concentration normalized to a 1 mg dose (enteric coated capsule, Dog 3, 195 min): 1825 pg/mL
- plasma peptide concentration normalized to a 1 mg dose (enteric coated capsule, Dog 4, 0 min): 0 pg/mL
- plasma peptide concentration normalized to a 1 mg dose (enteric coated capsule, Dog 4, 15 min): 0 pg/mL
- plasma peptide concentration normalized to a 1 mg dose (enteric coated capsule, Dog 4, 30 min): 0 pg/mL
- plasma peptide concentration normalized to a 1 mg dose (enteric coated capsule, Dog 4, 45 min): 0 pg/mL
- plasma peptide concentration normalized to a 1 mg dose (enteric coated capsule, Dog 4, 60 min): 0 pg/mL
- plasma peptide concentration normalized to a 1 mg dose (enteric coated capsule, Dog 4, 75 min): 0 pg/mL
- plasma peptide concentration normalized to a 1 mg dose (enteric coated capsule, Dog 4, 90 min): 0 pg/mL
- plasma peptide concentration normalized to a 1 mg dose (enteric coated capsule, Dog 4, 105 min): 13111 pg/mL
- plasma peptide concentration normalized to a 1 mg dose (enteric coated capsule, Dog 4, 120 min): 13147 pg/mL
- plasma peptide concentration normalized to a 1 mg dose (enteric coated capsule, Dog 4, 135 min): 6841 pg/mL
- plasma peptide concentration normalized to a 1 mg dose (enteric coated capsule, Dog 4, 150 min): 4251 pg/mL
- plasma peptide concentration normalized to a 1 mg dose (enteric coated capsule, Dog 4, 165 min): 2448 pg/mL
- plasma peptide concentration normalized to a 1 mg dose (enteric coated capsule, Dog 4, 180 min): 1468 pg/mL
- plasma peptide concentration normalized to a 1 mg dose (enteric coated capsule, Dog 4, 195 min): 1192 pg/mL
- plasma peptide concentration normalized to a 1 mg dose (non-enteric coated capsule, Dog 1, 45 min): 1343 pg/mL
- plasma peptide concentration normalized to a 1 mg dose (non-enteric coated capsule, Dog 1, 60 min): 561 pg/mL
- plasma peptide concentration normalized to a 1 mg dose (non-enteric coated capsule, Dog 1, 75 min): 273 pg/mL
- plasma peptide concentration normalized to a 1 mg dose (non-enteric coated capsule, Dog 1, 90 min): 140 pg/mL
- plasma peptide concentration normalized to a 1 mg dose (non-enteric coated capsule, Dog 1, 105 min): 121 pg/mL
- plasma peptide concentration normalized to a 1 mg dose (non-enteric coated capsule, Dog 1, 120 min): 89 pg/mL
- plasma peptide concentration normalized to a 1 mg dose (non-enteric coated capsule, Dog 1, 135 min): 51 pg/mL
- plasma peptide concentration normalized to a 1 mg dose (non-enteric coated capsule, Dog 1, 150 min): 31 pg/mL
- plasma peptide concentration normalized to a 1 mg dose (non-enteric coated capsule, Dog 1, 165 min): 23 pg/mL
- plasma peptide concentration normalized to a 1 mg dose (non-enteric coated capsule, Dog 1, 180 min): 16 pg/mL
- plasma peptide concentration normalized to a 1 mg dose (non-enteric coated capsule, Dog 1, 195 min): 11 pg/mL
- plasma peptide concentration normalized to a 1 mg dose (non-enteric coated capsule, Dog 1, 210 min): 0 pg/mL
- plasma peptide concentration normalized to a 1 mg dose (non-enteric coated capsule, Dog 1, 225 min): 0 pg/mL
- plasma peptide concentration normalized to a 1 mg dose (non-enteric coated capsule, Dog 1, 240 min): 0 pg/mL
- plasma peptide concentration normalized to a 1 mg dose (non-enteric coated capsule, Dog 2, 45 min): 2151 pg/mL
- plasma peptide concentration normalized to a 1 mg dose (non-enteric coated capsule, Dog 2, 60 min): 897 pg/mL
- plasma peptide concentration normalized to a 1 mg dose (non-enteric coated capsule, Dog 2, 75 min): 229 pg/mL
- plasma peptide concentration normalized to a 1 mg dose (non-enteric coated capsule, Dog 2, 90 min): 182 pg/mL
- plasma peptide concentration normalized to a 1 mg dose (non-enteric coated capsule, Dog 2, 105 min): 122 pg/mL
- plasma peptide concentration normalized to a 1 mg dose (non-enteric coated capsule, Dog 2, 120 min): 69 pg/mL
- plasma peptide concentration normalized to a 1 mg dose (non-enteric coated capsule, Dog 2, 135 min): 44 pg/mL
- plasma peptide concentration normalized to a 1 mg dose (non-enteric coated capsule, Dog 2, 150 min): 39 pg/mL
- plasma peptide concentration normalized to a 1 mg dose (non-enteric coated capsule, Dog 2, 165 min): 22 pg/mL
- plasma peptide concentration normalized to a 1 mg dose (non-enteric coated capsule, Dog 2, 180 min): 15 pg/mL
- plasma peptide concentration normalized to a 1 mg dose (non-enteric coated capsule, Dog 2, 195 min): 0 pg/mL
- plasma peptide concentration normalized to a 1 mg dose (non-enteric coated capsule, Dog 2, 210 min): 0 pg/mL
- plasma peptide concentration normalized to a 1 mg dose (non-enteric coated capsule, Dog 2, 225 min): 0 pg/mL
- plasma peptide concentration normalized to a 1 mg dose (non-enteric coated capsule, Dog 2, 240 min): 0 pg/mL
- plasma peptide concentration normalized to a 1 mg dose (non-enteric coated capsule, Dog 4, 45 min): 278 pg/mL
- plasma peptide concentration normalized to a 1 mg dose (non-enteric coated capsule, Dog 4, 60 min): 163 pg/mL
- plasma peptide concentration normalized to a 1 mg dose (non-enteric coated capsule, Dog 4, 75 min): 101 pg/mL
- plasma peptide concentration normalized to a 1 mg dose (non-enteric coated capsule, Dog 4, 90 min): 69 pg/mL
- plasma peptide concentration normalized to a 1 mg dose (non-enteric coated capsule, Dog 4, 105 min): 45 pg/mL
- plasma peptide concentration normalized to a 1 mg dose (non-enteric coated capsule, Dog 4, 120 min): 26 pg/mL
- plasma peptide concentration normalized to a 1 mg dose (non-enteric coated capsule, Dog 4, 135 min): 16 pg/mL
- plasma peptide concentration normalized to a 1 mg dose (non-enteric coated capsule, Dog 4, 150 min): 12 pg/mL
- plasma peptide concentration normalized to a 1 mg dose (non-enteric coated capsule, Dog 4, 165 min): 0 pg/mL
- plasma peptide concentration normalized to a 1 mg dose (non-enteric coated capsule, Dog 4, 180 min): 0 pg/mL
- plasma peptide concentration normalized to a 1 mg dose (non-enteric coated capsule, Dog 4, 195 min): 0 pg/mL
- plasma peptide concentration normalized to a 1 mg dose (non-enteric coated capsule, Dog 4, 210 min): 0 pg/mL
- plasma peptide concentration normalized to a 1 mg dose (non-enteric coated capsule, Dog 4, 225 min): 0 pg/mL
- plasma peptide concentration normalized to a 1 mg dose (non-enteric coated capsule, Dog 4, 240 min): 0 pg/mL
